According to ChEMBL document CHEMBL6182885, “Discovery, Biological Activity, and Biosynthesis of Pinocicolin A, an Antibiotic Isocyanide Metabolite Produced by Penicillium pinophilum” (J Nat Prod, 2025):

Experiments:
Escherichia coli = test: Antibacterial activity against Escherichia coli NEB10beta incubated overnight by disc diffusion assay; type: functional
Jonesia denitrificans = test: Antibacterial activity against Listeria denitrificans NBRC15587 incubated overnight by disc diffusion assay; type: functional
[1] = tested on: Brevibacillus choshinensis; test: Antibacterial activity against Brevibacillus SP3 incubated overnight by disc diffusion assay; type: functional
Pseudomonas aeruginosa = test: Antibacterial activity against Pseudomonas aeruginosa NBRC12689 incubated overnight by disc diffusion assay; type: functional
Staphylococcus aureus = test: Antibacterial activity against Staphylococcus aureus NBRC13276 incubated overnight by disc diffusion assay; type: functional
[2] = Metal chelating activity assessed as CAS-Cu complex formation in presence of CAS/CuCl2 by UV-Vis spectrophotometric analysis

SMILES | MIC (Escherichia coli) [µg] | MIC (Jonesia denitrificans) [µg] | MIC [1] [µg] | MIC (Pseudomonas aeruginosa) [µg] | MIC (Staphylococcus aureus) [µg] | EC50 [2] [µM]
[C-]#[N+][C@H](C(=O)OC[C@@H](O)[C@@H](O)[C@H](O)[C@H](O)COC(=O)[C@@H]([N+]#[C-])C(C)C)C(C)C | >100 | 5 | 5 | >100 | 5 | 8
CC(C)[C@H](NC=O)C(=O)OC[C@@H](O)[C@@H](O)[C@H](O)[C@H](O)COC(=O)[C@@H](NC=O)C(C)C | >100 | >100 | >100 | >100 | >100 | –
[C-]#[N+][C@H](C(=O)OC[C@@H](O)[C@@H](O)[C@H](O)[C@H](O)COC(=O)[C@@H](NC=O)C(C)C)C(C)C | >100 | >100 | >100 | >100 | >100 | 26.9
